Source: article PMC3961306, “Comparison of the Cancer Gene Targeting and Biochemical Selectivities of All Targeted Kinase Inhibitors Approved for Clinical Use” (PLoS ONE, 2014)

What was measured:
Assay in all cases: Kinase profiling in a biochemical assay panel (mobility shift assays and ELISA), %-inhibition at 1 μM; selectivity entropy
[1] = target: panel of more than 300 wild-type and mutant kinases (313 kinase panel) (Homo sapiens, UniProt Q13233)
[2] = target: T1, panel of more than 300 wild-type and mutant kinases (313 kinase panel) (Homo sapiens, UniProt Q9UHD2)
T1 sequence (Q9UHD2 1-729): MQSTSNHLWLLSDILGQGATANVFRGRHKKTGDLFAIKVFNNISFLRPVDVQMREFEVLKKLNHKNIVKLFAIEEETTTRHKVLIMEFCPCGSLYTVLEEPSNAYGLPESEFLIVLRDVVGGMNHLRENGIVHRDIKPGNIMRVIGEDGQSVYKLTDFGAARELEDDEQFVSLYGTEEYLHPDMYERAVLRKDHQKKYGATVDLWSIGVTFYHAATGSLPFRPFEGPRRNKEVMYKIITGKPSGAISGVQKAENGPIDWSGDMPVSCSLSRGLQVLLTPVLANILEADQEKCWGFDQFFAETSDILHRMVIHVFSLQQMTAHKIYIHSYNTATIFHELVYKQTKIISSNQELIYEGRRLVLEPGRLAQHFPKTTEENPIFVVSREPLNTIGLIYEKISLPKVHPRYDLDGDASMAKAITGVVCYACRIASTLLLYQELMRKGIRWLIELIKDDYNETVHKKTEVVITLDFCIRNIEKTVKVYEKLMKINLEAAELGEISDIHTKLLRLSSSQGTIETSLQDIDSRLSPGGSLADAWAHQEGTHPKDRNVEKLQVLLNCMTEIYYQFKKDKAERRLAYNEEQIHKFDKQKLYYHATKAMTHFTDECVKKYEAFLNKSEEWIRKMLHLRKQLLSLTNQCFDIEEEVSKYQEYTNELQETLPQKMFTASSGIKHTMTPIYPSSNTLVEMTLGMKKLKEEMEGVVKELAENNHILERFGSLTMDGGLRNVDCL

[3] = target: panel of more than 300 wild-type and mutant kinases (313 kinase panel) (Homo sapiens, UniProt Q15375)
Chain of panel of more than 300 wild-type and mutant kinases (313 kinase panel) (Homo sapiens, UniProt Q15375) (Q15375 28-998, change not shown): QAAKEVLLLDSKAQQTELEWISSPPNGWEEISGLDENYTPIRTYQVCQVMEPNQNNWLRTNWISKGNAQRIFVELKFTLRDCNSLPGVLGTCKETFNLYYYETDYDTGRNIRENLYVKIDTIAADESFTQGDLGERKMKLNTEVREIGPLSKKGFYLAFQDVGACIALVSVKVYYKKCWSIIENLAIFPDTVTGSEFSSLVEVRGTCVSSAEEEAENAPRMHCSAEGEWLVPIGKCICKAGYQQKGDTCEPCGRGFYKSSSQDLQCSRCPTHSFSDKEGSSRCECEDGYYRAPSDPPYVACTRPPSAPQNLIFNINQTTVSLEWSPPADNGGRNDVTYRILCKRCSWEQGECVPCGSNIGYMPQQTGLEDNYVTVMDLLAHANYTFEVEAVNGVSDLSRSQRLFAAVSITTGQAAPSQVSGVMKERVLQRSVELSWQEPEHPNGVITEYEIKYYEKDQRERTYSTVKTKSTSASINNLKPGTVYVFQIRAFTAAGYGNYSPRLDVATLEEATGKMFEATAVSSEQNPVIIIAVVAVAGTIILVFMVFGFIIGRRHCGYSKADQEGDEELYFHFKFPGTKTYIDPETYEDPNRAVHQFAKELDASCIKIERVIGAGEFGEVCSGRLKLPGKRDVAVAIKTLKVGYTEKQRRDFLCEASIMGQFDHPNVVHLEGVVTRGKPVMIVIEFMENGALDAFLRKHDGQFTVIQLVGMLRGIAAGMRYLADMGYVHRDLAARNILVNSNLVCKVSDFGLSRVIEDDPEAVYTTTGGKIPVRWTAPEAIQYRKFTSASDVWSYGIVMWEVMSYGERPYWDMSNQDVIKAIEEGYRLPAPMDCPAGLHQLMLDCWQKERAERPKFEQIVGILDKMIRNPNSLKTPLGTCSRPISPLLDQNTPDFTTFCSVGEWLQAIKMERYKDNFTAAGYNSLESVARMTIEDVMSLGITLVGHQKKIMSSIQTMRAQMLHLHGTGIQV

[4] = target: panel of more than 300 wild-type and mutant kinases (313 kinase panel) (Homo sapiens, UniProt P06239); settings: kinase LCK; compound at 1 μM
Chain of panel of more than 300 wild-type and mutant kinases (313 kinase panel) (Homo sapiens, UniProt P06239) (P06239 whole entry, change not shown): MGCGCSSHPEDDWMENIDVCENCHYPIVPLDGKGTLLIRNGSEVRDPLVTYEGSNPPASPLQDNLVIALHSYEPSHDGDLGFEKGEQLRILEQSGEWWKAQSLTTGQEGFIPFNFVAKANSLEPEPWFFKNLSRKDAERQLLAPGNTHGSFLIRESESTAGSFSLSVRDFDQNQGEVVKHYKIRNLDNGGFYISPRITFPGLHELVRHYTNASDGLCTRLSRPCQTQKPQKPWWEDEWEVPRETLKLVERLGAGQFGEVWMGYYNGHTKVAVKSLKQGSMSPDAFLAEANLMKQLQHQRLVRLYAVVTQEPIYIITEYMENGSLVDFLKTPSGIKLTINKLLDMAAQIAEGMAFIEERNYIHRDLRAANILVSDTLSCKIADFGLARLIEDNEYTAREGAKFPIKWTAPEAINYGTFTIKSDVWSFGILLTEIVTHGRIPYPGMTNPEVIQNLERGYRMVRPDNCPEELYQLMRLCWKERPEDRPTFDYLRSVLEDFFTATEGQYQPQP

[5] = target: panel of more than 300 wild-type and mutant kinases (313 kinase panel) (Homo sapiens, UniProt Q15349)
[6] = target: panel of more than 300 wild-type and mutant kinases (313 kinase panel) (Homo sapiens, UniProt Q8N4C8)
Chain of panel of more than 300 wild-type and mutant kinases (313 kinase panel) (Homo sapiens, UniProt Q8N4C8) (Q8N4C8 whole entry, change not shown): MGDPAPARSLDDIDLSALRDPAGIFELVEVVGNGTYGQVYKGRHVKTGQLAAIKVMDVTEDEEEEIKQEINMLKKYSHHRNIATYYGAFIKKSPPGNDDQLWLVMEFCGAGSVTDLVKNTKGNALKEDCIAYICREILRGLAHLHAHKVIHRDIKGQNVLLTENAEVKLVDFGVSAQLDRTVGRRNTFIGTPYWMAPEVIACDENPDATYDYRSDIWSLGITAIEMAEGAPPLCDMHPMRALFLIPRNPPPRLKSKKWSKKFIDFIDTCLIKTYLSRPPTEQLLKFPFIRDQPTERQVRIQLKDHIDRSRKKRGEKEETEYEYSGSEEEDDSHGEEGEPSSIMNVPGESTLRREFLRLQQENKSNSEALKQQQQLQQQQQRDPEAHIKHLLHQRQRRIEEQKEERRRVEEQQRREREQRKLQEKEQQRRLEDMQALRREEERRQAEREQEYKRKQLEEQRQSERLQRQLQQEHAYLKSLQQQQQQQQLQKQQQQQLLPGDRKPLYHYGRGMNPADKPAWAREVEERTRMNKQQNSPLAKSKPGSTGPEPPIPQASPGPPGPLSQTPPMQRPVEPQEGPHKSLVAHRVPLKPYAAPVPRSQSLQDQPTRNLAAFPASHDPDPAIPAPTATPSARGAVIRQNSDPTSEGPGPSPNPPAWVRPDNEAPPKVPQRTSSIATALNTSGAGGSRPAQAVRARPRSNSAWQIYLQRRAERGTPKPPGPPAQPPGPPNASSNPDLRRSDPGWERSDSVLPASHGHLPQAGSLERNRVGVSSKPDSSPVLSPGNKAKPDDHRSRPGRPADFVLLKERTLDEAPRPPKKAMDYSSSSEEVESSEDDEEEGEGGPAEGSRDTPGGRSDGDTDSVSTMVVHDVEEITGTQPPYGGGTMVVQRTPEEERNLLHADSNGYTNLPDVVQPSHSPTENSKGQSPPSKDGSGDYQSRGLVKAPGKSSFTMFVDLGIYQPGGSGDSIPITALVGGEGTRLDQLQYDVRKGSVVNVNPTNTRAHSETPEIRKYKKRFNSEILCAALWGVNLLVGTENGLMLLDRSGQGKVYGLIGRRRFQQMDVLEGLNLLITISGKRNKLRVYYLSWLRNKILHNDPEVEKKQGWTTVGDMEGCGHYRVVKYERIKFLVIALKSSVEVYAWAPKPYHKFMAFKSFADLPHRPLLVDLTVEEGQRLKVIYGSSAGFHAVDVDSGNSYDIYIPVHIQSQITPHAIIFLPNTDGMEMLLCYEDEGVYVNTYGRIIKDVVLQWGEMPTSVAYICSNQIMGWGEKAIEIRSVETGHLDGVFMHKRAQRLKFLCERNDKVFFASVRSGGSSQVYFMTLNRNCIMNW

[7] = target: T2, panel of more than 300 wild-type and mutant kinases (313 kinase panel) (Homo sapiens, UniProt Q02156)
T2 sequence (Q02156 1-737): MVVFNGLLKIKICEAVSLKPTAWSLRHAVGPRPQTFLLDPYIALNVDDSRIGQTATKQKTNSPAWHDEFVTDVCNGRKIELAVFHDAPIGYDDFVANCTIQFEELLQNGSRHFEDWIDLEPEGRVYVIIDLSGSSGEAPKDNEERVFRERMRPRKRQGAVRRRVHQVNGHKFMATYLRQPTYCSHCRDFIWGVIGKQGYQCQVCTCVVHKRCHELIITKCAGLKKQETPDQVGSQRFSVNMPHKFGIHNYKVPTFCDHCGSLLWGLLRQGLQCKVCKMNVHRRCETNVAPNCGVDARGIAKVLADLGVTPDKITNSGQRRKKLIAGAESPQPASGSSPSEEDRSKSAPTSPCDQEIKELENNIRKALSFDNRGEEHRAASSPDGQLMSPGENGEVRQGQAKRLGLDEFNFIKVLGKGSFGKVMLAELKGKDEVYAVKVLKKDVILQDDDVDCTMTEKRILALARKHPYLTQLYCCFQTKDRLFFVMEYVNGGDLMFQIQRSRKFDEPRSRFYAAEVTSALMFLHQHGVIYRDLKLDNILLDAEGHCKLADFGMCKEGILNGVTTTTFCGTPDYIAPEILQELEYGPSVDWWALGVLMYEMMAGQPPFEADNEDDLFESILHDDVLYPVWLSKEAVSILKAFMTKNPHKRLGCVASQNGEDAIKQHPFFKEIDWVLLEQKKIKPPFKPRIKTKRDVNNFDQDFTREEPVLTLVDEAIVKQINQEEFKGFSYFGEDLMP

[8] = target: panel of more than 300 wild-type and mutant kinases (313 kinase panel) (Homo sapiens, UniProt Q13554)
Chain of panel of more than 300 wild-type and mutant kinases (313 kinase panel) (Homo sapiens, UniProt Q13554) (Q13554 whole entry, change not shown): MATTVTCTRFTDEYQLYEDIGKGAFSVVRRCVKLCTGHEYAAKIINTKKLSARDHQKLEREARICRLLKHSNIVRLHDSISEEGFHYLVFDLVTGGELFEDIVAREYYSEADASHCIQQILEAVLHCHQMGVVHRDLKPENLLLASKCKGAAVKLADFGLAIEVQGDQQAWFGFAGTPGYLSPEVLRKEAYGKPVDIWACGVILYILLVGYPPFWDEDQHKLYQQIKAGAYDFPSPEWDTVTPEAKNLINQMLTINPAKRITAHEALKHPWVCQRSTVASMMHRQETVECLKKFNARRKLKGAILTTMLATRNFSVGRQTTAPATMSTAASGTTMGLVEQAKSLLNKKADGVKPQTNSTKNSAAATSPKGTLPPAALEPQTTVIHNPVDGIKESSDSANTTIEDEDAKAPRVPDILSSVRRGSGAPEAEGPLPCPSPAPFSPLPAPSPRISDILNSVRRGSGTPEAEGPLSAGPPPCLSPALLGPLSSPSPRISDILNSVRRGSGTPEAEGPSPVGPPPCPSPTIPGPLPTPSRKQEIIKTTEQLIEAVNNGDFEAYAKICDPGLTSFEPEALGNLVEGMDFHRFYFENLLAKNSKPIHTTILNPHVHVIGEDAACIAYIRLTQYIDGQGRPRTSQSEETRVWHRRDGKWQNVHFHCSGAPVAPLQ

[9] = target: panel of more than 300 wild-type and mutant kinases (313 kinase panel) (Homo sapiens, UniProt P35916)
[10] = target: T3, panel of more than 300 wild-type and mutant kinases (313 kinase panel) (Homo sapiens, UniProt P51817)
T3 sequence (P51817 1-358): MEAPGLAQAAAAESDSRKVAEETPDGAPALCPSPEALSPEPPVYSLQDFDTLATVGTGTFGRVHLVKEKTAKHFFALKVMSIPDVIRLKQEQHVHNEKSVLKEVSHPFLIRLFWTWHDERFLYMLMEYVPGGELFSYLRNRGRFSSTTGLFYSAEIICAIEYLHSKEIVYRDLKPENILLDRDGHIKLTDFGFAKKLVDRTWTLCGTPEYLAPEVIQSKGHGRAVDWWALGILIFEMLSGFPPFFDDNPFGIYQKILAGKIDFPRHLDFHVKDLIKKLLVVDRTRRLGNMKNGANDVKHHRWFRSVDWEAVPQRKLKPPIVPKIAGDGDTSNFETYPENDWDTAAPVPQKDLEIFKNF

[11] = kinase MAP3K1, compound at 1 μM

Chain of panel of more than 300 wild-type and mutant kinases (313 kinase panel) (Homo sapiens, UniProt Q13233) (Q13233 whole entry, change not shown): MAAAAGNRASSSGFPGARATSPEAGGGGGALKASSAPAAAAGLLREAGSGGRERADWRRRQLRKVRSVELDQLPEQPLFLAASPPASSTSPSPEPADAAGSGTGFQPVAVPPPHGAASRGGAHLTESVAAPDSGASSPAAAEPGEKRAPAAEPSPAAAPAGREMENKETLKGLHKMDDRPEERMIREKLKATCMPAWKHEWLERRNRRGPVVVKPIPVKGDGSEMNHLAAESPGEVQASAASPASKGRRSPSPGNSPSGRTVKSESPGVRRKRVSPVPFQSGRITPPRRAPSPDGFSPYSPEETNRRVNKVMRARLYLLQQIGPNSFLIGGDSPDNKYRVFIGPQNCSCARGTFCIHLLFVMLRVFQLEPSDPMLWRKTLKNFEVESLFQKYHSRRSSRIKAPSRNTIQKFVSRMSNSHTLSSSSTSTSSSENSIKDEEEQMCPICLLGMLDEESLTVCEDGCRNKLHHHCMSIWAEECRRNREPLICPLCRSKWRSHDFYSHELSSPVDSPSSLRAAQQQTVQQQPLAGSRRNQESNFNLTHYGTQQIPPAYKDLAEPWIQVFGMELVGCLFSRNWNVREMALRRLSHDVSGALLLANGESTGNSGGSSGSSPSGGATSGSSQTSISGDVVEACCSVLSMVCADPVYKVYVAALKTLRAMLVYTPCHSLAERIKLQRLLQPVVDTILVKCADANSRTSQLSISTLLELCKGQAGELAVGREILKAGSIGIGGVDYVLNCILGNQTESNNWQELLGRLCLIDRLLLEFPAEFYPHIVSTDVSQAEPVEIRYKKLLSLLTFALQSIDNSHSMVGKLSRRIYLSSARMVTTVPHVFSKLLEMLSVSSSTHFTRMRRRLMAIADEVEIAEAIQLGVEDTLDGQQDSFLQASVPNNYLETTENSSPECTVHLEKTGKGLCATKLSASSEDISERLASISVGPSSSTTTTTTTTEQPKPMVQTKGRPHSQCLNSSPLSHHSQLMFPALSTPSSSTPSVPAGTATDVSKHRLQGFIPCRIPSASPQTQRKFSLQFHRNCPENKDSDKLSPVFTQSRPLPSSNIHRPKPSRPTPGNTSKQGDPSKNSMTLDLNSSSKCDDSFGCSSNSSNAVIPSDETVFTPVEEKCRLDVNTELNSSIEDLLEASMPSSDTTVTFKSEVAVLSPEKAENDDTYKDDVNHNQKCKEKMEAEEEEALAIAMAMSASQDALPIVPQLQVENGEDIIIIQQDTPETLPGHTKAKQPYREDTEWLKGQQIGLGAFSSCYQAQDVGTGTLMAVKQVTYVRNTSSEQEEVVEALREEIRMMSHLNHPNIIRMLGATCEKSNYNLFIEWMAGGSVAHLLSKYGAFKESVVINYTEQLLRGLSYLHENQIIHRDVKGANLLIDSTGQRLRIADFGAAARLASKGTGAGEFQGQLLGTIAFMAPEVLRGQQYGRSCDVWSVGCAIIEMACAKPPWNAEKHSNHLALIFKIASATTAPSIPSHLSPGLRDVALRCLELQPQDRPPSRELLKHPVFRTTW

Row | Compound | %-inhibition of MAP3K1 [1, 11] | %-inhibition of TBK1 ([2]; kinase TBK1, 1 μM) | %-inhibition of EPHA7 ([3]; kinase EPHA7, compound at 1 μM) | %-inhibition of LCK [4] | %-inhibition of RSK3 ([5]; kinase RSK3, 1 μM) | %-inhibition of MINK ([6]; kinase MINK, 1 μM) | %-inhibition of PKCε ([7]; kinase PKCε, 1 μM) | %-inhibition, CaMK2β ([8]; kinase CaMK2β, 1 μM compound) | %-inhibition of FLT4 ([9]; kinase FLT4, compound at 1 μM) | %-inhibition of PRKX ([10]; kinase PRKX, 1 μM) | %-inhibition of MINK ([6]; 1 µM) | %-inhibition, CaMK2β ([8]; 1 µM) | %-inhibition of MAP3K1 ([1]; 1 µM) | %-inhibition of TBK1 ([2]; 1 µM) | %-inhibition of EPHA7 ([3]; 1 µM) | %-inhibition of RSK3 ([5]; 1 µM) | %-inhibition of PKCε ([7]; 1 µM) | %-inhibition of FLT4 ([9]; 1 µM) | %-inhibition of PRKX ([10]; 1 µM)
1 | CO[C@H]1C[C@@H]2CC[C@@H](C)[C@@](O)(O2)C(=O)C(=O)N2CCCC[C@H]2C(=O)O[C@H]([C@H](C)C[C@@H]2CC[C@@H](OC(=O)C(C)(CO)CO)[C@H](OC)C2)CC(=O)[C@H](C)/C=C(\C)[C@@H](O)[C@@H](OC)C(=O)[C@H](C)C[C@H](C)/C=C/C=C/C=C/1C [temsirolimus] | 6% | -2.23% | -6% | -2.22% | -3% | -4% | 4.32% | -9% | -0.926% | -1.9% |  |  |  |  |  |  |  |  | 
2 | CNC(=O)c1cc(Oc2ccc(NC(=O)Nc3ccc(Cl)c(C(F)(F)F)c3)c(F)c2)ccn1 [regorafenib] | 4% | -2.13% | 84% | 85% | 45% | 24% | -8% | -9% | 104% | -5.52% |  |  |  |  |  |  |  |  | 
3 | Cc1nc(Nc2ncc(C(=O)Nc3c(C)cccc3Cl)s2)cc(N2CCN(CCO)CC2)n1 [dasatinib] |  |  |  |  |  | 40% |  | -6% | 31% |  |  |  |  |  |  |  |  |  | 
4 | COc1cc2c(Nc3ccc(Br)cc3F)ncnc2cc1OCC1CCN(C)CC1 [vandetanib] | -7.43% | 0.911% | 81% |  | 9% | 24% | -4% | -4.23% | 104% | -5.69% |  |  |  |  |  |  |  |  | 
5 | CC(C)(C)c1nc(-c2cccc(NS(=O)(=O)c3c(F)cccc3F)c2F)c(-c2ccnc(N)n2)s1 [dabrafenib] | -40% | -1.15% | 13% | 83% |  | -0.772% | 5% | -0.277% | 85% | -1.55% |  |  |  |  |  |  |  |  | 
6 | Cc1ccc(Nc2nccc(N(C)c3ccc4c(C)n(C)nc4c3)n2)cc1S(N)(=O)=O [pazopanib] | 37% | -2.68% | 12% | 73% | 7% | 35% | -5.38% | -2.29% |  | -1.14% |  |  |  |  |  |  |  |  | 
7 | C[C@@H](Oc1cc(-c2cnn(C3CCNCC3)c2)cnc1N)c1c(Cl)ccc(F)c1Cl [crizotinib] | 28% | 1.42% |  |  | 3.34% | 0% | -7% |  | 48% | -7% |  |  |  |  |  |  |  |  | 
8 | O=S(=O)(c1cccc2cnccc12)N1CCCNCC1 [fasudil] | 1.37% | -5% | -5% | -7.52% |  | -1.41% | -43% | 2.58% | 5.61% | 86% |  |  |  |  |  |  |  |  | 
9 | CS(=O)(=O)CCNCc1ccc(-c2ccc3ncnc(Nc4ccc(OCc5cccc(F)c5)c(Cl)c4)c3c2)o1 [lapatinib] | 1.76% | -14% | 6.56% | 12% | 5.43% |  |  |  | -2.21% | 0.493% | -0.581% | -5% |  |  |  |  |  |  | 
10 | C#Cc1cccc(Nc2ncnc3cc(OCCOC)c(OCCOC)cc23)c1 [erlotinib] |  |  |  |  |  |  |  |  |  |  | 19% | -6% | 6% | 26% | 46% | 9% | 0.598% | 75% | 2%
11 | COc1cc(Nc2c(C#N)cnc3cc(OCCCN4CCN(C)CC4)c(OC)cc23)c(Cl)cc1Cl [bosutinib] | 60% | 32% |  |  |  | 100% | -0.711% |  | 92% | -4.31% |  |  |  |  |  | 67% |  |  | 
12 | CCN(CC)CCNC(=O)c1c(C)[nH]c(/C=C2\C(=O)Nc3ccc(F)cc32)c1C [sunitinib] |  | 56% |  |  |  |  |  |  |  |  |  |  |  |  |  |  |  |  | 
13 | Cc1ccc(C(=O)Nc2ccc(CN3CCN(C)CC3)c(C(F)(F)F)c2)cc1C#Cc1cnc2cccnn12 [ponatinib] | -9% |  |  | 103% | 62% | 80% | 12% |  | 101% | 26% |  |  |  |  |  |  |  |  | 
